In patent US20150065436A1, “INHIBITING INTERACTION BETWEEN HIF-1ALPHA AND p300/CBP WITH HYDROGEN BOND SURROGATE-BASED HELICES” (UNIVERSITY OF SOUTHERN CALIFORNIA, priority 2013, published 2015):

Assays:
[1] = biological target: T1, p300-CH1/Flu-HIF C-TAD complex (Homo sapiens, UniProt Q09472); assay: Fluorescence polarization competitive inhibition assay; format: binding
T1 construct: human p300 CH1 domain (amino acid residues 323-423); GST (cleaved yes); made in house; host or cells: E. coli BL21 (DE3) for p300-CH1

[2] = test system: LOX; assay: Real-time qRT-PCR of LOX expression in hypoxic HeLa cells; format: cell-based, human; settings: hypoxia
[3] = test system: SLC2A1 (GLUT1); assay: Real-time qRT-PCR of SLC2A1 (GLUT1) expression in hypoxic HeLa cells; format: cell-based, human; settings: hypoxia, dose-dependent (10 and 50 μM tested)
[4] = test system: hypoxia-inducible promoter activity in MDA-MB-231-HRE-Luc cells; assay: Luciferase-based HRE promoter activity assay; settings: 50 μM, hypoxia by GasPak EZ pouch
Description: MDA-MB-231-HRE-Luc cells were grown in high glucose DMEM supplemented with 10% fetal bovine serum and 0.4 g/L geneticin (RPI). Hypoxia was mimicked with desferrioxamine mesylate (DFO, Sigma) at a concentration of 300 μM or by GasPak EZ pouch (BD Biosciences). Cell growth and morphology were monitored by phase-contrast microscopy.
MDA-MB-231-HRE-Luc cells were plated in 24-well plates (BD Falcon) at a seeding density of 35,000 cells/mL. Cells were allowed to adhere and form a monolayer before adding the compounds (˜70% confluence). […] All samples contained a final concentration of 0.1% DMSO; vehicle samples were treated with cell culture media containing 0.1% DMSO. Cells were incubated for 6 hours at 37° C. and 5% CO2 and then hypoxia was induced by placing the cells into GasPak EZ pouch for another 18 hours. The lysates were isolated by using cell culture lysis reagent (Promega). Prior to collecting cell lysate, halt protease inhibitor cocktail (Thermo Scientific) was added to the cell culture lysis reagent in order to ensure the stability of proteins. Cell lysates were collected into low-adhesion pre-chilled Eppendorf tubes (USA Scientific) and centrifuged at 13,000 rpm for 5 minutes at 4° C. Supernatant was collected into another set of pre-chilled Eppendorf tubes and the pellet was discarded. Luciferase assay reagent (100 μL, Promega) was added to 20 μL of cell lysate and luminescence intensity was measured by Turner TD-20e luminometer. The results were normalized to total protein concentration determined by BCA assay. Briefly, 10 μL of cell lysate was added to 200 μL of BCA reagent. Absorbance was measured at 562 nm using a BioTek Synergy 2 microplate reader and normalized to BSA solutions at a concentration range of 125 μg/mL to 2000 μg/mL as standards.

[5] = test system: VEGFA; assay: Real-time qRT-PCR of VEGFA expression in hypoxic HeLa cells; format: cell-based, human; settings: for reduction of VEGF expression levels: DFO hypoxia
[6] = test system: HeLa cells; assay: MTT cell viability assay; format: cell-based, human; settings: 1 to 100 μM, 24 hours
Description: HeLa cells were plated in a 96-well plate at a density of 6,000 cells/well and allowed to form a monolayer before adding the compounds. […] After 3 hours of incubation, the media was removed and purple crystals were dissolved in 100 μL of dimethyl sulfoxide (DMSO). The absorbance was measured at 570 nm with a correction at 690 nm in order to quantify the amount of formed purple formazan. All experiments were performed in quadruplicate.
HBS 1 is an efficient modulator of contacts between HIF-1α and p300/CBP. Known inhibitors of this interaction typically function allosterically, by inducing unfolding of p300/CBP through abstraction of zinc ions. This could lead to non-specific abstraction of metal ions from other biomolecules (Block et al., “Direct Inhibition of Hypoxia-Inducible Transcription Factor Complex With Designed Dimeric Epidithiodiketopiperazine,” J. Am. Chem. Soc. 131(50):18078-88 (2009), which is hereby incorporated by reference in its entirety). It was predicted that the HIF-1α mimetics should manifest their function in a more specific manner, and should not be generally cytotoxic. Cell viability assays confirm this hypothesis. […] Thus, HBS 2 may not just be a straightforward lower affinity analog of HBS 1 as designed.

T1 sequence (Q09472 323-423, one chain of several): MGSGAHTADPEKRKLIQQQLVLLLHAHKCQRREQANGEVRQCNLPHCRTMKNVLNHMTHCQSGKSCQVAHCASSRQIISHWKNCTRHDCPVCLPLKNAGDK

SMILES	Ki [1] [µM]	downregulation of LOX expression ([2]; 10 μM (first of two doses)) [%]	downregulation of LOX expression ([2]; 50 μM (second of two doses)) [%]	inhibition of SLC2A1 expression [3]	reduction of luciferase expression [4]	reduction of VEGF expression levels ([5]; 10 μM) [%]	reduction of VEGF expression levels ([5]; 50 μM)	inhibition of VEGF expression under two hypoxia mimetic conditions ([5]; DFO and prolonged incubation in an anaerobic pouch)	cytotoxicity [6]	inhibition of the complex on titration ([1]; preformed p300-CH1/Flu-HIF C-TAD complex)	activity on LOX expression ([2]; concentration not given)
CC(C)C[C@H](NC(=O)[C@H](C)NC(=O)[C@H](CCCNC(=N)N)NC(=O)[C@H](C)N1CC=CCCC(=O)N[C@@H](CCC(=O)O)C(=O)N[C@@H](CC(C)C)C1=O)C(=O)N[C@@H](CC(=O)O)C(=O)N[C@@H](CCC(N)=O)C(N)=O [HBS 1, XELA*RALDQ-NH2]	3.5 ± 1.2	55	70	50-60%	25%	50	greater than 60%	dose-dependent inhibition	essentially non-cytotoxic	–	–
CC(C)C[C@@H]1NC(=O)[C@H](CCC(=O)O)NC(=O)CCC=CCN([C@@H](C)C(=O)N[C@@H](CCCNC(=N)N)C(=O)N[C@@H](C)C(=O)N[C@@H](C)C(=O)N[C@@H](CC(=O)O)C(=O)N[C@@H](CCC(N)=O)C(N)=O)C1=O [HBS 2, XELA*RAADQ-NH2]	–	–	–	no activity	less effective	–	10%	–	higher level of cytotoxicity than HBS 1	did not lead to reproducible inhibition	no activity
